Assay results as given in ChEMBL document CHEMBL3751718, “Synthesis and biological evaluation of lipid-like 5-(2-hydroxyethyl)-4-methyl-1,3-thiazole derivatives as potential anticancer and antimicrobial agents” (Medchemcomm, 2015).
Converted amounts (≈) assume the structure as drawn. The source made the active and inactive calls. The rule behind the calls is not given here.

Key:
[1] = test system: Staphylococcus aureus; assay: Antibacterial activity against Staphylococcus aureus MSCL 334 at 5 mg/ml after 24 hrs by agar dish diffusion method; type: functional
[2] = test system: Bacillus cereus; assay: Antibacterial activity against Bacillus cereus MSCL 330 at 5 mg/ml after 24 hrs by agar dish diffusion method; type: functional
[3] = test system: Escherichia coli; assay: Antibacterial activity against Escherichia coli MSCL 332 at 5 mg/ml after 24 hrs by agar dish diffusion method; type: functional
[4] = test system: Pseudomonas aeruginosa; assay: Antibacterial activity against Pseudomonas aeruginosa MSCL 331 at 5 mg/ml after 24 hrs by agar dish diffusion method; type: functional
[5] = test system: Proteus mirabilis; assay: Antibacterial activity against Proteus mirabilis MSCL 590 at 5 mg/ml after 24 hrs by agar dish diffusion method; type: functional
[6] = test system: Candida albicans; assay: Antifungal activity against Candida albicans MSCL 378 at 5 mg/ml after 48 hrs by agar dish diffusion method; type: functional; details: for zone of inhibition at 5000 µg/mL: MSCL 378, 48 h, read-out: DIZ
[7] = test system: Aspergillus niger; assay: Antifungal activity against Aspergillus niger MSCL 324 at 5 mg/ml after 48 hrs by agar dish diffusion method; type: functional
[8] = test system: Staphylococcus aureus; assay: Antibacterial activity against Staphylococcus aureus MSCL 334 at 10 mg/ml after 24 hrs by agar dish diffusion method; type: functional
[9] = test system: Bacillus cereus; assay: Antibacterial activity against Bacillus cereus MSCL 330 at 10 mg/ml after 24 hrs by agar dish diffusion method; type: functional
[10] = test system: Escherichia coli; assay: Antibacterial activity against Escherichia coli MSCL 332 at 10 mg/ml after 24 hrs by agar dish diffusion method; type: functional
[11] = test system: Pseudomonas aeruginosa; assay: Antibacterial activity against Pseudomonas aeruginosa MSCL 331 at 10 mg/ml after 24 hrs by agar dish diffusion method; type: functional
[12] = test system: Proteus mirabilis; assay: Antibacterial activity against Proteus mirabilis MSCL 590 at 10 mg/ml after 24 hrs by agar dish diffusion method; type: functional
[13] = test system: Candida albicans; assay: Antifungal activity against Candida albicans MSCL 378 at 10 mg/ml after 48 hrs by agar dish diffusion method; type: functional; details: for zone of inhibition at 10000 µg/mL: MSCL 378, 48 h, read-out: DIZ
[14] = test system: Aspergillus niger; assay: Antifungal activity against Aspergillus niger MSCL 324 at 10 mg/ml after 48 hrs by agar dish diffusion method; type: functional; details: for zone of inhibition at 10000 µg/mL: MSCL 324, 48 h, read-out: DIZ
[15] = test system: MG-22A; assay: Induction of nitric oxide production in mouse MG-22A cells by Griess assay; type: functional; set-up: concentration or dose not given beside the values
[16] = Cytotoxicity against mouse NIH/3T3 cells assessed as cell viability at 6.25 to 50 ug/ml by neutral red-based assay; details: nih3t3
[17] = test system: Bacillus cereus; assay: Antibacterial activity against Bacillus cereus MSCL 330 after 24 hrs by broth dilution method; type: functional; details: MSCL 330, 24 h
[18] = test system: Bacillus cereus; assay: Bactericidal activity against Bacillus cereus MSCL 330 incubated for 24 hrs followed by colony transfer to agar plates for 24 hrs by colony counting based assay; type: functional; details: MSCL 330, 24 h, read-out: MBC99.9
[19] = test system: Candida albicans; assay: Antifungal activity against Candida albicans MSCL 378 after 24 hrs by broth dilution method; type: functional; details: MSCL 378, 24 h
[20] = test system: Candida albicans; assay: Fungicidal activity against Candida albicans MSCL 378 incubated for 24 hrs followed by colony transfer to agar plates for 24 hrs by colony counting based assay; type: functional; details: MSCL 378, 24 h, read-out: MFC99.9
[21] = test system: Aspergillus niger; assay: Antifungal activity against Aspergillus niger MSCL 324 after 24 hrs by broth dilution method; type: functional; details: MSCL 324, 24 h
[22] = test system: Aspergillus niger; assay: Fungicidal activity against Aspergillus niger MSCL 324 incubated for 24 hrs followed by colony transfer to agar plates for 24 hrs by colony counting based assay; type: functional; details: MSCL 324, 24 h, read-out: MFC99.9
[23] = test system: HT-1080; assay: Induction of nitric oxide production in human HT1080 cells by Griess assay; type: functional; set-up: concentration or dose not given beside the values
[24] = (§1) Cytotoxicity against human HT1080 cells assessed as cell viability at 6.25 to 50 ug/ml by crystal violet-based assay; type: functional; details: HT-1080, read-out: LC50 (the source's name)
[25] = (§2) Cytotoxicity against human HT1080 cells assessed as cell viability at 6.25 to 50 ug/ml after 72 hrs by MTT assay; type: functional; details: HT-1080, 72 h, read-out: LC50 (the source's name)
[26] = test system: MG-22A; assay: Cytotoxicity against mouse MG-22A cells assessed as cell viability at 6.25 to 50 ug/ml by crystal violet-based assay; type: functional; details: for CC50: read-out: LC50 (the source's name)
[27] = test system: MG-22A; assay: Cytotoxicity against mouse MG-22A cells assessed as cell viability at 6.25 to 50 ug/ml after 72 hrs by MTT assay; type: functional; details: for CC50: read-out: LC50 (the source's name)
[28] = test system: HT-1080; assay: as §1; type: functional
[29] = test system: HT-1080; assay: as §2; type: functional

Compound: GENTAMICIN
- inhibition zone (IZ) [1]: 30 mm
- inhibition zone (IZ) [2]: 35 mm
- inhibition zone (IZ) [3]: 27 mm
- inhibition zone (IZ) [4]: 31 mm
- inhibition zone (IZ) [5]: 28 mm
- diameter of the inhibition zone (DIZ) [6]: inactive
- diameter of the inhibition zone (DIZ) [7]: inactive
- inhibition zone (IZ) [8]: 32 mm
- inhibition zone (IZ) [9]: 36 mm
- inhibition zone (IZ) [10]: 30 mm
- inhibition zone (IZ) [11]: 32 mm
- inhibition zone (IZ) [12]: 31 mm
- diameter of the inhibition zone (DIZ) [13]: inactive
- diameter of the inhibition zone (DIZ) [14]: inactive

Compound: CCCCCCCCCCOCCc1scnc1C
- Activity [15]: 200%
- LC50 [16]: 84.8 µM
- diameter of the inhibition zone (DIZ) [1]: inactive
- zone of inhibition at 5000 µg/mL ([2]; MSCL 330, 24 h, read-out: DIZ): 9 mm
- diameter of the inhibition zone (DIZ) [3]: inactive
- diameter of the inhibition zone (DIZ) [4]: inactive
- diameter of the inhibition zone (DIZ) [5]: inactive
- zone of inhibition at 5000 µg/mL [6]: 13 mm
- zone of inhibition at 5000 µg/mL ([7]; MSCL 324, 48 h, read-out: DIZ): 11 mm
- zone of inhibition at 10000 µg/mL ([8]; MSCL 334, 24 h, read-out: DIZ): 10 mm
- zone of inhibition at 10000 µg/mL ([9]; MSCL 330, 24 h, read-out: DIZ): 10 mm
- diameter of the inhibition zone (DIZ) [10]: inactive
- diameter of the inhibition zone (DIZ) [11]: inactive
- diameter of the inhibition zone (DIZ) [12]: inactive
- zone of inhibition at 10000 µg/mL [13]: 9 mm
- zone of inhibition at 10000 µg/mL [14]: 11 mm
- MIC [17]: 2 µg/mL (≈ 7.06 µM)
- MBC [18]: > 256 µg/mL
- MIC [19]: > 256 µg/mL
- MFC [20]: > 256 µg/mL
- MIC [21]: 32 µg/mL (≈ 113 µM)
- MFC [22]: 64 µg/mL (≈ 226 µM)
- Activity [23]: 400%
- CC50 [24]: 60 µM
- CC50 [25]: 63.6 µM
- CC50 [26]: 38.8 µM
- CC50 [27]: 45.9 µM

Compound: Cc1ncsc1CCO
- Activity [15]: 4%
- Activity [23]: 4%
- LC50 [28]: inactive
- LC50 [29]: inactive
- LC50 [26]: inactive
- LC50 [27]: inactive

Compound: CCCCCCCCCCCCCCCCCCOCCc1scnc1C
- Activity [15]: 5%
- LC50 [16]: 528 µg/mL
- diameter of the inhibition zone (DIZ) [1]: inactive
- diameter of the inhibition zone (DIZ) [2]: inactive
- diameter of the inhibition zone (DIZ) [3]: inactive
- diameter of the inhibition zone (DIZ) [4]: inactive
- diameter of the inhibition zone (DIZ) [5]: inactive
- zone of inhibition at 5000 µg/mL [6]: 10 mm
- diameter of the inhibition zone (DIZ) [7]: inactive
- diameter of the inhibition zone (DIZ) [8]: inactive
- diameter of the inhibition zone (DIZ) [9]: inactive
- diameter of the inhibition zone (DIZ) [10]: inactive
- diameter of the inhibition zone (DIZ) [11]: inactive
- diameter of the inhibition zone (DIZ) [12]: inactive
- zone of inhibition at 10000 µg/mL [13]: 14 mm
- zone of inhibition at 10000 µg/mL [14]: 11 mm
- MIC [19]: > 256 µg/mL
- MFC [20]: > 256 µg/mL
- MIC [21]: > 256 µg/mL
- MFC [22]: > 256 µg/mL
- Activity [23]: 4%
- CC50 [24]: > 100 µg/mL
- CC50 [25]: > 100 µg/mL
- CC50 [26]: > 100 µg/mL
- CC50 [27]: > 100 µg/mL
